According to publication PMC6576746, “Rational discovery of dual-indication multi-target PDE/Kinase inhibitor for precision anti-cancer therapy using structural systems pharmacology” (PLoS Computational Biology, 2019):

What was measured:
Experiment in all cases: biochemical
Parameters in all cases: DiscoverX KinomeScan competition binding assay across human kinases; per cent of control at 10 and 100 uM
PRKD3 = PRKD3 (Homo sapiens, UniProt O94806); settings: competition binding, % of control; read-out: Percent Control (100 uM Levosimendan)
Method in brief: (§1)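 Binding is expressed as %control, normalised between positive and negative control signals. The compound (levosimendan) was tested at 10 μM and 100 μM in the DiscoverX KinomeScan competition binding format against human kinases.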

MAP4K5 = MAP4K5 (Homo sapiens, UniProt Q9Y4K4); settings: competition binding, % of control; read-out: Percent Control (100 uM Levosimendan)
Method in brief: as §1

CAMK1 = CAMK1 (Homo sapiens, UniProt Q14012); settings: competition binding, % of control; read-out: Percent Control (100 uM Levosimendan)
Method in brief: as §1

PLK1 = PLK1 (Homo sapiens, UniProt P53350); settings: competition binding, % of control; read-out: Percent Control (100 uM Levosimendan)
Method in brief: as §1

GRK7 = GRK7 (Homo sapiens, UniProt Q8WTQ7); settings: competition binding, % of control; read-out: Percent Control (100 uM Levosimendan)
Method in brief: as §1

JNK3 = molecular target: T1, JNK3 (Homo sapiens, UniProt P53779); settings: competition binding, % of control; read-out: Percent Control (100 uM Levosimendan)
T1 construct: gene MAPK10
Method in brief: as §1

PDPK1 = PDPK1 (Homo sapiens, UniProt O15530); settings: competition binding, % of control; read-out: Percent Control (100 uM Levosimendan)
Method in brief: as §1

KIT = KIT (Homo sapiens, UniProt P10721); settings: competition binding, % of control
Method in brief: as §1

ACVR1B = ACVR1B (Homo sapiens, UniProt P36896); settings: competition binding, % of control; read-out: Percent Control (100 uM Levosimendan)
Method in brief: as §1

CDK4-cyclinD1 = molecular target: T2, CDK4-cyclinD1 (Homo sapiens, UniProt P11802); settings: competition binding, % of control; read-out: Percent Control (100 uM Levosimendan)
T2 construct: cyclinD1
Method in brief: as §1

EGFR(E746-A750del) = EGFR(E746-A750del) (Homo sapiens, UniProt P00533, DEL746-750); settings: competition binding, % of control; read-out: Percent Control (100 uM Levosimendan)
Method in brief: as §1

SBK1 = SBK1 (Homo sapiens, UniProt Q52WX2); settings: competition binding, % of control; read-out: Percent Control (100 uM Levosimendan)
Method in brief: as §1

PHKG2 = PHKG2 (Homo sapiens, UniProt P15735); settings: competition binding, % of control
Method in brief: as §1

EGFR(T790M) = EGFR(T790M) (Homo sapiens, UniProt P00533, T790M); settings: competition binding, % of control
Method in brief: as §1

NEK9 = NEK9 (Homo sapiens, UniProt Q8TD19); settings: competition binding, % of control; read-out: Percent Control (100 uM Levosimendan)
Method in brief: as §1

CSK = CSK (Homo sapiens, UniProt P41240); settings: competition binding, % of control; read-out: Percent Control (100 uM Levosimendan)
Method in brief: as §1

ROCK2 = ROCK2 (Homo sapiens, UniProt O75116); settings: competition binding, % of control
Method in brief: as §1

TRKA = molecular target: T3, TRKA (Homo sapiens, UniProt P04629); settings: competition binding, % of control; read-out: Percent Control (100 uM Levosimendan)
T3 construct: gene NTRK1
Method in brief: as §1

CIT = CIT (Homo sapiens, UniProt O14578); settings: competition binding, % of control; read-out: Percent Control (100 uM Levosimendan)
Method in brief: as §1

[1] = read-out: Percent Control (10 uM Levosimendan)
[2] = read-out: Percent Control (100 uM Levosimendan)

PHKG2, sequence (P15735 whole entry): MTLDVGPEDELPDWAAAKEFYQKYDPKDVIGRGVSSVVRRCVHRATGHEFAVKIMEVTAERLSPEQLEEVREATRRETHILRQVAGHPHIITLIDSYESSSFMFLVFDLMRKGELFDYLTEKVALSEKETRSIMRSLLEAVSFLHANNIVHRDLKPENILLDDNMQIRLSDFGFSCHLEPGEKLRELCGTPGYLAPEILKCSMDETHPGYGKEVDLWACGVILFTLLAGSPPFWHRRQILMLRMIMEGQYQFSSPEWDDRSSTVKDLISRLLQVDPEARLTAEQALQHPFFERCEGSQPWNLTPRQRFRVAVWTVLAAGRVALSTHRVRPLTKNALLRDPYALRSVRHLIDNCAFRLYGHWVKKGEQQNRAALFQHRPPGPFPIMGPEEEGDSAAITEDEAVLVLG
EGFR(T790M), sequence (P00533 whole entry T790M): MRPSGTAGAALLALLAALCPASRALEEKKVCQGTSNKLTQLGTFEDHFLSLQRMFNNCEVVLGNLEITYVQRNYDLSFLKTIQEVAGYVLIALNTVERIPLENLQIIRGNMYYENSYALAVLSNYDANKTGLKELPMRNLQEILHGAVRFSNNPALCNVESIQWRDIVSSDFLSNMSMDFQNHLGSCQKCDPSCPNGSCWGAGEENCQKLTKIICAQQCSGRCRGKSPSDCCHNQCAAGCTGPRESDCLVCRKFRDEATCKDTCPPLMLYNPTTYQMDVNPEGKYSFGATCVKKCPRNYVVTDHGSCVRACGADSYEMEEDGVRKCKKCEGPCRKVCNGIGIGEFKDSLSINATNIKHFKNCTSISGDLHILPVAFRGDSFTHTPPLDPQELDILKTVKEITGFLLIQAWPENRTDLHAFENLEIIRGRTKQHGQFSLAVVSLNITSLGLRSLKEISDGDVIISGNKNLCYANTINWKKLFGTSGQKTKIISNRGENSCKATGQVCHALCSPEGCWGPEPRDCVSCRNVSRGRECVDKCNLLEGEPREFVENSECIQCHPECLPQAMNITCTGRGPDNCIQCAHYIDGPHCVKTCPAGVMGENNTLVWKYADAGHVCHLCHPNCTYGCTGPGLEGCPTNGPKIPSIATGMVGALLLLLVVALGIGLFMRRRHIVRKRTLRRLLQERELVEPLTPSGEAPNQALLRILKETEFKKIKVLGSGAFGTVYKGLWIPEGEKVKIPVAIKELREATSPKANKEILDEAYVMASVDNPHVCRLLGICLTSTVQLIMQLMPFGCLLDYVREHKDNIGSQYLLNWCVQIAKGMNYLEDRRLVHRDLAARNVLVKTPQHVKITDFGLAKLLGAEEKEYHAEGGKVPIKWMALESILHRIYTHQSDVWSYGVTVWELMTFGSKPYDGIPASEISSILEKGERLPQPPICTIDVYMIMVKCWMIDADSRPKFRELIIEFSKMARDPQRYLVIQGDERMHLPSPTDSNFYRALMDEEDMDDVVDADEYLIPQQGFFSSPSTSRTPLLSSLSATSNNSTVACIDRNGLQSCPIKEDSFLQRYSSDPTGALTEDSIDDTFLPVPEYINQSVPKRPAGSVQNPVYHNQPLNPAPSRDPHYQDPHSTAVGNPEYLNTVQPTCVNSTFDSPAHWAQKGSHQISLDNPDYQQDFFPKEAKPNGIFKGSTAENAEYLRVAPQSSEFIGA
KIT, sequence (P10721 whole entry): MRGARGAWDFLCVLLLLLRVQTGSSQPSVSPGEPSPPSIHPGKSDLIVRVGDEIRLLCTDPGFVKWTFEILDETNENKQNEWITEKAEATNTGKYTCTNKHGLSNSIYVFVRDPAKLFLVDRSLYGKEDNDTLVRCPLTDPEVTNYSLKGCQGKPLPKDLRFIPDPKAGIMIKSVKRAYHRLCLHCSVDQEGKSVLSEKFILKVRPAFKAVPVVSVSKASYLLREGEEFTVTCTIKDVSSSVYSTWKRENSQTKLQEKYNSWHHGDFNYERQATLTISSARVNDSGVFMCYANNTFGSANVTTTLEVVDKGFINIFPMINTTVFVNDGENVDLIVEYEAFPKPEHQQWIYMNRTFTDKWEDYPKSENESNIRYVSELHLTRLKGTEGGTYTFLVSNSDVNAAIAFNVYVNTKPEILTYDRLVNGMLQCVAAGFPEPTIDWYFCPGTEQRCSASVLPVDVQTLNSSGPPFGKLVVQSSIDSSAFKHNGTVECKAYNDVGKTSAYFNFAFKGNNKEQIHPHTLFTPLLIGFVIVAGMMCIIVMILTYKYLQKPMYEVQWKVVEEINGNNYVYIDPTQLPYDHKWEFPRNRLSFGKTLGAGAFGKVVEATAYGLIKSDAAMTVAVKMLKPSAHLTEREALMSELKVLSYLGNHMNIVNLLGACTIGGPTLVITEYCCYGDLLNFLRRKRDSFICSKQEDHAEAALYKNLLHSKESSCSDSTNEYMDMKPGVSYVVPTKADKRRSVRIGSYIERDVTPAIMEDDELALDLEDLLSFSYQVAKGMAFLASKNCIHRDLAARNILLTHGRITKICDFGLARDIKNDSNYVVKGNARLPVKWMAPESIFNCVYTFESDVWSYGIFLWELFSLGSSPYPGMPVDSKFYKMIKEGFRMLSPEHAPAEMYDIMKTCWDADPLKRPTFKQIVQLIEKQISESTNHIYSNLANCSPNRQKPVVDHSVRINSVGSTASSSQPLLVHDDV
ROCK2, sequence (O75116 whole entry): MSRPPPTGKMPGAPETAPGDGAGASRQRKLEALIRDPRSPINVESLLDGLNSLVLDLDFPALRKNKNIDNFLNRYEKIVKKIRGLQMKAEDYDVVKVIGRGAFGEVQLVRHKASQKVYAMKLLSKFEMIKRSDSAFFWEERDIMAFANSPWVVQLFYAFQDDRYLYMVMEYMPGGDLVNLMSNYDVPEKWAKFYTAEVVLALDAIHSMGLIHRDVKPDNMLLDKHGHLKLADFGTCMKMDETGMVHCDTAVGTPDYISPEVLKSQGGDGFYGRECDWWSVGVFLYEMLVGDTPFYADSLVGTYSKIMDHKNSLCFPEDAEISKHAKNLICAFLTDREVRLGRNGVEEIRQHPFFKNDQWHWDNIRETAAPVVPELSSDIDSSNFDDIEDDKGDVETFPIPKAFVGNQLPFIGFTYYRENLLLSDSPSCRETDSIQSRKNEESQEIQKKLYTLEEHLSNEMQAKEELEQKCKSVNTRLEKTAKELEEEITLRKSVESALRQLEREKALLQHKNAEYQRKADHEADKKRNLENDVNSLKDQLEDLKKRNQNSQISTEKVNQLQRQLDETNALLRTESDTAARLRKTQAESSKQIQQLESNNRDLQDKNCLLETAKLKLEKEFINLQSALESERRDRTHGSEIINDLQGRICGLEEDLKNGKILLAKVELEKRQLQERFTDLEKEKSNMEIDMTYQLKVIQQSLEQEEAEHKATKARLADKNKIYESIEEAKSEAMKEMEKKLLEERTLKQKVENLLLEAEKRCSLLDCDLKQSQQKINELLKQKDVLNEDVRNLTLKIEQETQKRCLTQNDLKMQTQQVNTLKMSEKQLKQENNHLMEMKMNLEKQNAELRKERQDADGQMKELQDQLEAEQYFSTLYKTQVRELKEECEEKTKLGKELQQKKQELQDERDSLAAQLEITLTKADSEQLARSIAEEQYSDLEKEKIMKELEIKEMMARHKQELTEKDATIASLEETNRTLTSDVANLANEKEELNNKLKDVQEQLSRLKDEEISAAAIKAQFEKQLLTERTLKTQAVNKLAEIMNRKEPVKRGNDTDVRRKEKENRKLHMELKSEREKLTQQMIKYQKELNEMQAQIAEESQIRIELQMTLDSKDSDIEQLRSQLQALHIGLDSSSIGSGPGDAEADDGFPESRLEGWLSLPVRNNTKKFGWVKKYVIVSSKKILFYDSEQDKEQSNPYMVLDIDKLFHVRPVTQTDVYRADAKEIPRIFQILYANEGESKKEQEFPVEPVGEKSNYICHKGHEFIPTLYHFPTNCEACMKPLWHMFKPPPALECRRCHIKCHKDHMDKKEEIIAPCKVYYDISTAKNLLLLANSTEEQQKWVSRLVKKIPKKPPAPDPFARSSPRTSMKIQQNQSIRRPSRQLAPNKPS
PRKD3, sequence (O94806 whole entry): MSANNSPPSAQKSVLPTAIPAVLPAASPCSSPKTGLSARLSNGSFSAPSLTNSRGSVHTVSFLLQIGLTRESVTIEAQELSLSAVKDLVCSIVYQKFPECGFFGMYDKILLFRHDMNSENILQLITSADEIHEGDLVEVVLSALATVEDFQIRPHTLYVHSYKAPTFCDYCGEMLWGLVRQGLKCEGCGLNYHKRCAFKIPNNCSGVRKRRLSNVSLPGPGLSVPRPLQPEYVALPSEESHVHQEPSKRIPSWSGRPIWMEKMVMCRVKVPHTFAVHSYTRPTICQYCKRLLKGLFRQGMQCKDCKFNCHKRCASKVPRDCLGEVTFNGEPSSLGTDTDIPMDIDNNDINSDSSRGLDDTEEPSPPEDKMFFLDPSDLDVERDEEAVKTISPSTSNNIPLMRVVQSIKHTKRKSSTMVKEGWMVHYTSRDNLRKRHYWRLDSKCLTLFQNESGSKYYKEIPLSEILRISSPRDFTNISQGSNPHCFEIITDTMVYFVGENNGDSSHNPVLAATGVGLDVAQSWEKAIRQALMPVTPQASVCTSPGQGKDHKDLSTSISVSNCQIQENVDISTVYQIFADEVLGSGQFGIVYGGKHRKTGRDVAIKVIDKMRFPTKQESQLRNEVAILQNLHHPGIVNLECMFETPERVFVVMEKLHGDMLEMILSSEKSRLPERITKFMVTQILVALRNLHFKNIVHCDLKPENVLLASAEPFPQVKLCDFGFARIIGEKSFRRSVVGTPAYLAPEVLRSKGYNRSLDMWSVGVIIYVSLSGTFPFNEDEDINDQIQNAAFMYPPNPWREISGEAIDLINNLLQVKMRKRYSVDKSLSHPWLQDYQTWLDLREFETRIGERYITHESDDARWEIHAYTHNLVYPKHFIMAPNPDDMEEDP

## C[C@@H]1CC(=O)NN=C1c1ccc(NN=C(C#N)C#N)cc1 [levosimendan]
PRKD3
  remaining binding at 100 µM: 100%
MAP4K5
  remaining binding at 100 µM: 100%
CAMK1
  remaining binding at 100 µM: 77%
PLK1
  remaining binding at 100 µM: 100%
GRK7
  remaining binding at 100 µM: 100%
JNK3
  remaining binding at 100 µM: 99%
PDPK1
  remaining binding at 100 µM: 100%
KIT; [1]
  remaining binding at 10 µM: 26%
KIT; [2]
  remaining binding at 100 µM: 3.5%
ACVR1B
  remaining binding at 100 µM: 61%
CDK4-cyclinD1
  remaining binding at 100 µM: 84%
EGFR(E746-A750del)
  remaining binding at 100 µM: 63%
SBK1
  remaining binding at 100 µM: 78%
PHKG2; [1]
  remaining binding at 10 µM: 55%
PHKG2; [2]
  remaining binding at 100 µM: 47%
EGFR(T790M); [1]
  remaining binding at 10 µM: 88%
EGFR(T790M); [2]
  remaining binding at 100 µM: 31%
NEK9
  remaining binding at 100 µM: 56%
CSK
  remaining binding at 100 µM: 76%
ROCK2; [1]
  remaining binding at 10 µM: 49%
ROCK2; [2]
  remaining binding at 100 µM: 4.9%
TRKA
  remaining binding at 100 µM: 65%
CIT
  remaining binding at 100 µM: 59%
